Series [1] in a line: Parallel Artificial Membrane Permeability Assay (PAMPA). As to conditions: pH 7.4, 5 h. The format is in vitro ADME. How it is done: Finally, we evaluated passive membrane permeability (AppP) while using Parallel Artificial Membrane Permeability Assay (PAMPA). The quantity of compound able to diffuse through a semipermeable artificial membrane was calculated by LC-MS-MS.
Donor solution (0.5 mM) was prepared by diluting 1 mM dimethylsulfoxide (DMSO) compound stock solution while using phosphate buffer (pH 7.4, 0.025 M). Filters were coated with 5 μL of a 1% (w/v) dodecane solution of phosphatidylcholine for intestinal permeability. Donor solution (150 μL) was added to each well of the filter plate. To each well of the acceptor plate was added 300 μL of solution (50% DMSO in phosphate buffer). All of the compounds were tested in three different plates on different days. The sandwich was incubated for 5 h at room temperature under gentle shaking. After the incubation time, the plates were separated, and samples were taken from both receiver and donor sides and analyzed while using LC with UV detection at 280 nm. LC analysis was performed with a PerkinElmer (series 200) instrument that was equipped with an UV detector (PerkinElmer 785A, UV/vis Detector). Chromatographic separation was conducted using a Polaris C18 column (150–4.6 mm, 5 μm particle size) at a flow rate of 0.8 mL min^−1 with a mobile phase composed of 60% ACN/40% H2O-formic acid 0.1% for all compounds. Permeability (Papp) was calculated according to the following equation with some modification to obtain permeability values in cm/s, (1) Papp=VDVA/(VD+VA)At−ln(1−r) where VA is the volume in the acceptor well, VD is the volume in the donor well (cm^3), A is the “effective area” of the membrane (cm^2), t is the incubation time (s), and r the ratio between drug concentration in the acceptor and equilibrium concentration of the drug in the total volume(VD + VA).
Drug concentration is estimated by using the peak area integration. Membrane retentions (%) were calculated according to the following equation:(2) %MR=[r−(D+A)]100/Eq where r is the ratio between drug concentration in the acceptor and equilibrium concentration, D, A, and Eq represented drug concentration in the donor, acceptor, and equilibrium solution, respectively.
A general note: PAMPA measures passive passage across an artificial lipid membrane.

The nature of series [2]: Water solubility assay. The series is classed as physicochemical. As to conditions: 27 °C, thermodynamic from solid, 1 mg in 1 mL water. How it is done:
[…] After 24 h of stirring at 27 °C, the mixture was filtered and the quantity of solubilized compound determined by LC-MS-MS. […] By contrast, esters 30 and 31 due to their lipophilicity have values outside the recommended range […].
The appropriate (1 mg) was added to 1 mL of water. The sample was shaken in a shaker bath at room temperature for 24–36 h. The suspensions were filtered through a 0.45 μm nylon filter (Acrodisc, Sigma Aldrich, Milan, Italy) and the solubilized compound determined by LC-MS-MS assay. The determination was performed in triplicate. For the quantification, an LC-MS system consisting of a Varian apparatus (Varian Inc., Palo Alto, CA, USA), including a vacuum solvent degassing unit, two pumps (212-LC), a Triple Quadrupole MSD (Mod. 320-LC) mass spectrometer with ES interface, and Varian MS Workstation System Control Vers. 6.9 software, was used. Chromatographic separation was obtained while using a 3 μm particle size Pursuit C18 column (50 × 2.0 mm) (Varian). Column was equilibrated in Buffer B (aqueous solution of 0.1% formic acid) and eluted with a linear increase from 0% to 70% gradient of Buffer A (ACN) for 10 min. and subsequent increase up to 98% for additional 5 min. The instrument operated in positive mode and the following parameters were used: injection volume 5 μL, flow rate 0.3 mL/min, detector 1850 V, drying gas pressure 25.0 psi, desolvation temperature 300.0 °C, nebulizing gas 45.0 psi, needle 5000 V, and shield 600 V. Nebulizer gas and drying gas was Nitrogen. Argon was the collision gas at a pressure of 1.8 mTorr in the collision cell. Single compound quantification was performed in comparison with standard calibration curves in methanol.

Series [3] deals with T1, DDX3X ATPase (Homo sapiens, UniProt O00571).
T1 construct: Recombinant his-tagged human full length DDX3X was cloned into the E. coli expression vector pET-30a(+); His tag; made in house; host or cells: Shuffle T7 E. coli
Nature of the series: DDX3X ATPase assay (ADP-Glo). Conditions: recombinant human DDX3X, 50 μM ATP; mean ± SD of three experiments; read-out: DDX3X ATPase Ki (apparent dissociation constant for inhibitor binding). The format is biochemical. How it is done: Recombinant his-tagged human full length DDX3X was cloned into the E. coli expression vector pET-30a(+). Shuffle T7 E. coli cells were transformed with the plasmid and grown at 37 °C up to OD600 = 0.7. DDX3X expression was induced with 0.5 mM IPTG at 15 °C O/N. The cells were harvested by centrifugation, lysed, and the crude extract centrifuged at 100.000xg for 60 min. at 4 °C in a Beckman centrifuge before being loaded onto a FPLC Ni-NTA column (GE Healthcare). Column was equilibrated in Buffer A (50 mM Tris-HCl pH 8.0, 250 mM NaCl, 25 mM Imidazole, and 20% glycerol). After extensive washing in Buffer A, the column was eluted with a linear gradient in Buffer A from 25 mM to 250 mM Imidazole. Proteins in the eluted fractions were visualized on SDS-PAGE and then tested for the presence of DDX3X by Western blot with anti-DDX3X A300-475A(BETHYL) at 1:2000 dilution in 5% milk. Fractions containing the purest DDX3X protein were pooled and stored at −80 °C.
The ATPase assay was carried out by using the commercial kit Promega (Milan, Italy), ADP-Glo^TM Kinase Assay. Reaction was performed in 30 mM TrisHCl pH 8, 9 mM MgCl2, 0.05 mg/mL BSA, 50 μM ATP, and 4 μM of recombinant DDX3X. Reaction was performed following the ADP-Glo^TM Kinase Assay Protocol and luminescence was measured with MicroBeta TriLux (Perkin Elmer, Milan, Italy).

For series [4], the system named is H9 cells. Nature of the series: Cytotoxicity assay in H9 cells (CellTiter-Glo 2.0). The series is classed as cell-based, human. As to conditions: CC50 in H9 cells versus anti-HIV-1 IC50. The protocol:
(§1) Cytotoxicity in H9 cells was determined by using the CellTiter-Glo 2.0 assay (Promega). H9 cells were seeded at 40,000 cells/well in duplicate in the presence of serial two-fold dilutions of compounds (range 200–1.56 μM) and incubated for 72 h. Cell viability was calculated by measuring cellular ATP as a marker of metabolically active cells through a luciferase based chemical reaction and expressed as the concentration that reduce cell viability by 50%.
For orientation: ATP-based viability assays read luminescence as a measure of living cells.

Series [5] can be described thus: Cytotoxicity assay in H9 cells (CellTiter-Glo 2.0). As to conditions: human; non-infected H9 cells, 72 h. The format is cell-based, human. How it is done: as §1
Series [6] concerns HIV-1 (NL4-3). In words: Antiviral BiCycle assay, HIV-1 NL4-3 in H9 cells with TZM-bl readout. The format is cell-based. As to conditions: 72 h, then TZM-bl reporter cells 48 h. How it is done:
The antiviral activity was evaluated by measuring the half maximal inhibitory concentration (IC50) values against the HIV-1 wild-type reference strain NL4-3 in a TZM-bl cell line based phenotypic assay, named BiCycle Assay. The method includes a first round of infection of human T cell lymphoma derived clone H9 at multiplicity of infection of 0.03 in the presence of serial dilution of compounds in a 96-well plate. After 72 h, 50 microliters of supernatants from each well were used to infect the TZM-bl cell line, which allow the quantitative analysis of HIV infection by measuring the expression of the luciferase gene integrated in the genome of the cells under the control of HIV-1 LTR promoter.
After 48 h, dose-response curves were generated by measuring reporter gene expression in each well by using the Bright-Glo Luciferase Assay (Promega) through the GloMax Discovery reader (Promega). Relative luminescence units measured in each well were elaborated with the GraphPad Software v.6.0 to calculate IC50 values. All the viruses and cell lines were obtained through the NIH AIDS Reagent Program (www.aidsreagent.org).

Series [7] has as its system HIV-1. More on the design: method as in PMID 18834110. Conditions: MT4 cells; read-out: EC50, inhibition of HIV-1 replication; cited from earlier work.
The target of series [8] is DDX3X. Also noted: method as in PMID 21698775. Conditions: cited from earlier work.

The CC50 is the concentration at which the toxic effect on the cells reaches its halfway point. Read a high CC50 as better tolerance by the cells. The term IC50 denotes the concentration that inhibits the measured activity by half. For orientation: EC50 means the concentration giving half of the maximal effect.

Where two headings read alike, the source gives them in different places.

T1 sequence (O00571 whole entry): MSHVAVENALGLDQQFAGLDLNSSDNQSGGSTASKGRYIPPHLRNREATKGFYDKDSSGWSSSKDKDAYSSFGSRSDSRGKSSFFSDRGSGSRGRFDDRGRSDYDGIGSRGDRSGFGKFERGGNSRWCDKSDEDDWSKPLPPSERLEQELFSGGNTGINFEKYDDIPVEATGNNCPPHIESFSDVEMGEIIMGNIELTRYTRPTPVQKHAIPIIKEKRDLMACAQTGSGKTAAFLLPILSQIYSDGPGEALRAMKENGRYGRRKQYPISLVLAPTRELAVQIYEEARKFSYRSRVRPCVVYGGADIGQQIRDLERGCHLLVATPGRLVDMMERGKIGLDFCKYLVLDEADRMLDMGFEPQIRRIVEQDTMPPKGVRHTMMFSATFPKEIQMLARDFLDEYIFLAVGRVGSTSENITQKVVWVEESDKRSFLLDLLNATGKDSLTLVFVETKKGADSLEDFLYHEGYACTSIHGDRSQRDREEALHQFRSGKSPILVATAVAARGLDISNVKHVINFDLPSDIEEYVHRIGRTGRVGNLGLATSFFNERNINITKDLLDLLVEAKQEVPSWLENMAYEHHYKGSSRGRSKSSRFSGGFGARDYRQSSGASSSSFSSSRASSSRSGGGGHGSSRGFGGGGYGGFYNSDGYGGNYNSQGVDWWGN

For `O=C(O)c1ccccc1C(=O)Nc1nnc(-c2ccc(O)cc2)s1` [Compound 24, 2-((5-(4-Hydroxyphenyl)-1,3,4-thiadiazol-2-yl)carbamoyl)benzoic acid], in series [1], the “Percentage in parentheses beside AppP (membrane retention)” value worked out at 0%. Besides, the Papp at 5 h, 0.5 mM in series [1] (room temperature, read-out: AppP (apparent permeability)) was less than 0.1 ×10⁻⁶ cm/s. For the same compound, the solubility at 24 h in series [2] (read-out: AqS (aqueous solubility)) is 27.8 µg/mL; in series [2] (read-out: AqS as Log of molar concentration (LogS) (converted)), 83.2 µM. Further, in series [3], the Ki stood at 1.9 ± 0.4 µM. In addition, the “SI (selectivity index)” value in series [4] worked out at 45. The compound also gave a CC50 at 72 h in series [5] of 125 µM. The IC50 in series [6] (H9 cells) came out at 2.8 ± 1.5 µM; in series [6] (Human immunodeficiency virus 1, NL43, H9 cells) it was 3.9 µM.

Turning to `O=C(CN1C(=O)/C(=C/c2cccc(Br)c2)SC1=S)Nc1ccccc1O` [FE15], in series [7], the half-maximal effective concentration (EC50) is 86.7 µM.

`O=C1/C(=C/c2c(NCCCO)nc3ccccn3c2=O)SC(=S)N1CCc1ccccc1` [FE109]: in series [8], the Ki is 0.2 µM.

The values are drawn from publication PMC6864647, “Synthesis and Antiviral Activity of Novel 1,3,4-Thiadiazole Inhibitors of DDX3X” (Molecules, 2019).
